Literature values as cited in the CATMoS acute toxicity set (Mansouri et al. 2021).

Assay: rat acute oral toxicity
Settings: in vivo
From the text: […]The data set underlying the modeling effort for this project was initially compiled by NICEATM and U.S. EPA’s CCTE. Briefly, LD50 data were collected from rat acute oral systemic toxicity tests, including limit tests, ranges/confidence intervals, and discrete LD50 values. The full data set included 21,200 LD50 entries for 15,688 substances. […] Data were reviewed to ensure that LD50 values with obvious errors in the extracted data such as unit conversion errors (e.g., comma and decimal separator misplacements) were either fixed or removed. After this review, 16,209 LD50 values remained. Many of the chemicals represented had multiple LD50 entries, requiring that a single representative value per Chemical Abstracts Service Registry Number (CASRN) identifier be defined to facilitate modeling efforts. Based on ATWG feedback and to define the representative LD50 as a protective value while accounting for the distribution across multiple LD50s, the median of the lowest quartile was computed using only discrete LD50 values (omitting limit test data and range and confidence interval data). A detailed summary of the data compilation is available online on the NICEATM webpage dedicated to the collaborative modeling project (NTP 2020).
[…][…] For categorical designations, limit test and range/confidence interval LD50 data were integrated wherever possible. As such, the number of chemicals with end point values/calls varies across the modeling end points (Table 3) based on whether chemicals had representative LD50 values and/or other data. If a chemical had both, the representative value was used to determine categorical calls rather than limit test data. Some data were useable only for certain end points and categories depending on the thresholds. For example, ranges that spanned multiple hazard categories were considered only for the binary (very toxic/nontoxic) end points and omitted from rendering a determination for hazard category assignment.
[…]The final data set comprising 11,992 chemicals was split into training and evaluation sets […], respectively. This process was performed semirandomly by ordering chemicals based on the five end points (categorical and continuous LD50 values) and partitioning every fourth record into the evaluation set accordingly. This approach was taken to ensure an equivalent distribution of the LD50 values and the different hazard categories between the training and the evaluation sets without supervised sampling of the chemicals based on structures (Figure 1A). The sources of the chemical structures were also kept equivalent between the two sets, with chemical structures obtained from DSSTox, being the highest quality, representing over 75% of each set (Figure 1B).

Row | Compound | LD50
1 | CCC(C)=C1C(=O)N(c2ccccc2)N(c2ccccc2)C1=O | 2020 mg/kg
2 | CCCCCN(C)N=O | 120 mg/kg
3 | CCc1cc2c(cc1C(C)=O)C(C)(C)CCC2(C)C | 260 mg/kg
4 | C=C(C)CN(CC)c1c([N+](=O)[O-])cc(C(F)(F)F)cc1[N+](=O)[O-] | 10000 mg/kg
5 | COc1ccc(-c2nc3ccc(C4=NNC(=O)CC4C)cc3[nH]2)cc1 (stereo not given) | 950 mg/kg
6 | CCOC(=O)COC(=O)c1cc(Oc2ccc(C(F)(F)F)cc2Cl)ccc1[N+](=O)[O-] | 1480 mg/kg
7 | CNNCc1ccc(C(=O)NC(C)C)cc1 | 570 mg/kg
8 | c1ccc(P(c2ccccc2)c2ccccc2)cc1 | 700 mg/kg
9 | CC(NCCO)c1ccccc1 (stereo not given) | 2830 mg/kg
10 | COc1ccccc1C1=CCN(CC=Cc2ccc3c(c2)CCC(=O)N3)CC1 | 500 mg/kg
11 | OCCN1CCCN(CCCN2c3ccccc3C=Cc3ccccc32)CC1 | 2410 mg/kg
12 | CC(C(=O)OCCOCCO)c1ccc2c(c1)C(=O)Cc1ccccc1O2 (stereo not given) | 260 mg/kg
13 | CC1CN(CCO)CC1C (stereo not given) | 1230 mg/kg
14 | CCOc1ccc(/C=C2\NCCc3cc(OCC)c(OCC)cc32)cc1OCC | 540 mg/kg
15 | Cc1cc(-c2ccc(N=Nc3c(S(=O)(=O)O)cc4cc(S(=O)(=O)O)cc(N)c4c3O)c(C)c2)ccc1N=Nc1c(S(=O)(=O)O)cc2cc(S(=O)(=O)O)cc(N)c2c1O | 6200 mg/kg
16 | O=C(OCCN1CCOCC1)c1cccnc1Nc1cccc(C(F)(F)F)c1 | 4300 mg/kg
17 | CCN(COC)N=O | 540 mg/kg
18 | COB1OB(OC)OB(OC)O1 | 5160 mg/kg
19 | Clc1nc(C(Cl)(Cl)Cl)c(Cl)c(Cl)c1Cl | 1840 mg/kg
20 | COc1cc2c3c(c4ccc(OC)c(OC)c4c2cc1OC)CN1CCCC1C3 (stereo not given) | 65 mg/kg
21 | OC(CNCC(O)C1COc2ccccc2O1)C1COc2ccccc2O1 (stereo not given) | 4490 mg/kg
22 | CCCCN(N=O)C(=O)OCC | 900 mg/kg
23 | C=C1/C(=C\C=C2/CCC[C@]3(C)[C@@H]([C@H](C)CCCC(C)(C)O)CC[C@@H]23)C[C@@H](O)C[C@@H]1O | 0.62 mg/kg
24 | O=C1c2ccc3c4c(ccc(c24)C(=O)C1(Cl)Cl)CC3 | 10600 mg/kg

Row | Compound | LD50
25 | c1ccc2c(c1)Oc1ccccc1O2 | 1220 mg/kg
26 | [SiH3]CCCCC(Cl)(Cl)Cl | 2340 mg/kg
27 | COP(=S)(OC)Oc1ccc(SC)c(C)c1 | 180 mg/kg
28 | CC(C)(CO)C(O)C#N (stereo not given) | 310 mg/kg
29 | Cc1ccc(C(C)OC(=O)C2(C)CCC(C(=O)O)C2(C)C)cc1 (stereo not given) | 2810 mg/kg
30 | O=[N+]([O-])c1cc2c(ccc3ccccc32)o1 | 439 mg/kg
31 | COc1ccccc1OC1CCN(CCCC(=O)c2ccc(F)cc2)C1 (stereo not given) | 241 mg/kg
32 | C#CCON=CC1=CCCNC1 | 80 mg/kg
33 | COP(=O)(OC)SC(P(=O)(OC)OC)=P(OC)(OC)OC | 38 mg/kg
34 | CCN[C@H](C)Cc1cccc(C(F)(F)F)c1 | 195 mg/kg
35 | CC[N+](CC)(CC)Cc1ccccc1 | 2220 mg/kg
36 | O=C(c1ccc(Cl)cc1)n1cc(Cc2nn[nH]n2)c2ccccc21 | 1200 mg/kg
37 | Cc1cc(C(C#N)c2ccc(Cl)cc2)c(Cl)cc1NC(=O)c1cc(I)cc(I)c1O (stereo not given) | 262 mg/kg
38 | C=C(/C=C/C)C1=C(C)CCCC1(C)C | 2920 mg/kg
39 | COc1ccccc1 | 3700 mg/kg
40 | O=C(CCCN1CCN(c2ccccc2)CC1)c1ccc(F)cc1 | 550 mg/kg
41 | CCCN(CCC)S(=O)(=O)CCNC(=O)N(CCCl)N=O | 250 mg/kg
42 | CCC(C)c1ccccc1 (stereo not given) | 2240 mg/kg
43 | CC1(C)C(=O)N(Cl)C(=O)N1Br | 1390 mg/kg
44 | CSc1ncnc2c1ncn2C1OC(CO)C(O)C1O (stereo not given) | 214 mg/kg
45 | CC(=C(CCO)SSCC1CCCO1)N(C=O)Cc1cnc(C)nc1N (stereo not given) | 2200 mg/kg
46 | CN(Cc1ccccc1)N=O | 18 mg/kg
47 | CCN(CC)Cc1nccn1-c1ccc([N+](=O)[O-])cc1C(=O)c1ccccc1Cl | 1580 mg/kg
48 | O=C(O)CN(CCN(CC(=O)O)CC(=O)O)CCN(CC(=O)O)CC(=O)O | 4550 mg/kg

Row | Compound | LD50
49 | CCOCN(C(=O)CCl)c1c(C)cccc1OC(C)C | 2700 mg/kg
50 | CC(C(O)c1ccccc1)N(C)CCC#N (stereo not given) | 940 mg/kg
51 | CCCCCCCCOC(=O)/C=C\C(=O)OCCCCCCCC | 14200 mg/kg
52 | C=CC1(C)CCC(C(C)(C)O)O1 (stereo not given) | 1150 mg/kg
53 | CC(=C\c1ccccc1)/C=C1/SC(=S)N(CC(=O)O)C1=O | 5.3 mg/kg
54 | O=[N+]([O-])c1nccn1CC(O)CO (stereo not given) | 5080 mg/kg
55 | C[C@H]1CCCCN1N=O | 600 mg/kg
56 | CCN(CC)N=Nc1ccccc1 | 520 mg/kg
57 | CNC(=O)N(O)c1ccccc1 | 3400 mg/kg
58 | C=CCN(CC=C)CC=C | 1030 mg/kg
59 | N=C(N)SCc1ccccc1 | 27 mg/kg
60 | Cn1cc(C(=O)[C@@H]2CCc3[nH]cnc3C2)c2ccccc21 | 1260 mg/kg
61 | CCN(CC)CCCC(C)Nc1c2cc(Cl)ccc2nc2ccc(OC)cc12 (stereo not given) | 4400 mg/kg
62 | CC(Cc1ccc2c(c1)OCO2)NCC(O)c1ccc(O)c(O)c1 (stereo not given) | 865 mg/kg
63 | CC(C)=CCl | 4460 mg/kg
64 | COc1ccccc1OC(=O)CNC(=O)Cc1ccc(C(=O)c2ccc(C)cc2)n1C | 1450 mg/kg
65 | C=C(C)c1ccccc1 | 4900 mg/kg
66 | CCC(=O)Nc1ccc2nc(C(F)(F)F)[nH]c2c1 | 8.92 mg/kg
67 | c1ccc2c(C(CCN3CCOCC3)CCN3CCOCC3)cccc2c1 | 708 mg/kg
68 | OC[C@@H](O)[C@@H](O)[C@H](O)[C@H](O)CO | 13500 mg/kg
69 | Nc1ccc(S(=O)(=O)O)c2cccc(S(=O)(=O)O)c12 | 56000 mg/kg
70 | CCOP(=S)(OCC)SCn1ncccc1=O | 2.5 mg/kg
71 | Cc1ccc(C)[nH]1 | 59 mg/kg
72 | CCCCCCCCOC(C[n+]1ccccc1)c1ccc(C(C)(C)C)cc1 (stereo not given) | 250 mg/kg

Row | Compound | LD50
73 | C1CCC2OCCOCCOC3CCCCC3OCCOCCOC2C1 (stereo not given) | 176 mg/kg
74 | CCCCCCCNC(=O)Oc1ccc2c(c1)C1(C)CCN(C)C1N2C (stereo not given) | 25.1 mg/kg
75 | CNC(=O)Oc1cccc2c1OC(C)(C)C2O (stereo not given) | 18 mg/kg
76 | CCOC(=O)c1cnn(C)c1-n1cnc2ccccc2c1=O | 1760 mg/kg
77 | Nc1cccc(-n2ccccc2=O)c1 | 2300 mg/kg
78 | CCN(CCCCCCOC(=O)c1ccc(OC)c(OC)c1)C1CCc2cc(OC)ccc2C1 (stereo not given) | 2830 mg/kg
79 | CCOP(=O)(OCC)SCS(=O)(=O)CC | 0.5 mg/kg
80 | Cc1ccc(NC(=O)CF)cc1 | 7 mg/kg
81 | CC(C)C(=O)N(C)C(=O)Oc1cccc(C(C)C)c1 | 631 mg/kg
82 | O=NN1CCCCCCCC1 | 566 mg/kg
83 | ClC(Cl)=C(c1ccc(Cl)cc1)c1ccc(Cl)cc1 | 880 mg/kg
84 | O=C(O)CC(O)c1ccc(-c2ccc(Cl)cc2)o1 (stereo not given) | 2460 mg/kg
85 | Clc1cccc(-c2cc(Cl)cc(Cl)c2)c1 | 2300 mg/kg
86 | Cc1c(C(=O)NCCO)[n+]([O-])c2ccccc2[n+]1[O-] | 1720 mg/kg
87 | CCCCCCCc1ccc(O)cc1O | 1300 mg/kg
88 | C=COC | 4900 mg/kg
89 | Cc1c(Cl)c(=O)oc2cc(OP(=O)(OCCCl)OCCCl)ccc12 | 900 mg/kg
90 | CS(=O)C(C)(C)C(=O)O (stereo not given) | 7500 mg/kg
91 | Cc1ncc(CO)c(C=O)c1O | 2150 mg/kg
92 | COc1ccc2cc([C@H](C)C(=O)OCCN3CCN(Cc4ccc(N)cc4)CC3)ccc2c1 | 1600 mg/kg
93 | CCOC(C)CO (stereo not given) | 7110 mg/kg
94 | CCOC(=O)CC | 8730 mg/kg
95 | O=P(O)(O)OC(=CCl)c1ccc(Cl)cc1Cl | 13 mg/kg
96 | COc1cc(C=CC(=O)N2CCN(CC(=O)N3CCCC3)CC2)cc(OC)c1OC | 1310 mg/kg

Row | Compound | LD50
97 | CCc1c(C)nc2cc(C)cc(C)n2c1=O | 1500 mg/kg
98 | Cc1cc(CCN2CCN(c3cccc(Cl)c3)CC2)n[nH]1 | 570 mg/kg
99 | CCOP(=O)(OCC)SCCC(F)=C(F)F | 68 mg/kg
100 | CC(CCN(C)C)N(C)C (stereo not given) | 750 mg/kg
101 | FC(F)(F)c1cccc(C2CNCCO2)c1 (stereo not given) | 271 mg/kg
102 | CC1(C)[C@H](C(=O)O[C@H](C#N)c2cccc(Oc3ccccc3)c2)[C@@H]1/C=C(\Cl)C(F)(F)F (single isomer, unassigned) | 56 mg/kg
103 | COc1cc(C2NC(=O)CCS2)cc(OC)c1OC (stereo not given) | 5400 mg/kg
104 | CC(C(C)(C)C)C(C)(C)SSSC(C)(C)C(C)C(C)(C)C (stereo not given) | 19600 mg/kg
105 | ClCC=C(Cl)CCl | 224 mg/kg
106 | SCCc1cnccn1 | 158 mg/kg
107 | C=CCCCCCCCCC(=O)OC | 1560 mg/kg
108 | O=C(NCC1CCCCN1)c1cc(OCC(F)(F)F)ccc1OCC(F)(F)F (stereo not given) | 1350 mg/kg
109 | O=CCC=O | 632 mg/kg
110 | FCOC(C(F)(F)F)C(F)(F)F | 10800 mg/kg
111 | C=CCOCC(CC)(CO)COCC=C | 6500 mg/kg
112 | CCCCN(COC(C)=O)N=O | 1500 mg/kg
113 | ClCCN(Cc1ccccc1)Cc1ccccc1 | 2400 mg/kg
114 | CCCn1c(C)cc(OP(=S)(OCC)OCC)cc1=O | 9.75 mg/kg
115 | CCCCN(CC)c1c([N+](=O)[O-])cc(C(F)(F)F)cc1[N+](=O)[O-] | 10000 mg/kg
116 | CS(=O)C(C)(C)C(N)=O (stereo not given) | 16000 mg/kg
117 | NC[C@@H]1O[C@H](O[C@H]2[C@@H](O)[C@H](O[C@@H]3[C@@H](O)[C@H](N)C[C@H](N)[C@H]3O[C@H]3O[C@H](CO)[C@@H](O)[C@H](O)[C@H]3N)O[C@@H]2CO)[C@H](N)[C@@H](O)[C@@H]1O | 21600 mg/kg
118 | CCCCCCCCc1ccccc1O | 2800 mg/kg
119 | CNC(C)Cc1ccc(Cl)cc1 (stereo not given) | 110 mg/kg
120 | CCCCOCCCOC(=O)COc1ccc(Cl)cc1Cl | 500 mg/kg
